#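 Grown in 96-well plates, cells were treated for 48 hours with each compound at five concentrations. Insufficient inhibition: endpoint recorded as highest concentration tested. Abbreviation: GI50, concentration required for 50% inhibition of growth. TGI: total growth inhibition.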
# Key:
# Test in all cases: NCI-60 cell line screen, 48 h
# 786-0 renal = test system: 786-0 renal
# A498 renal = test system: A498 renal
# A549 NSCLC = test system: A549 NSCLC
# ACHN renal = test system: ACHN renal
# BT-549 breast = test system: BT-549 breast
# CAKI-1 renal = test system: CAKI-1 renal
# CCRF-CEM leukemia = test system: CCRF-CEM leukemia
# COLO 205 colon = test system: COLO 205 colon
# DU-145 prostate = test system: DU-145 prostate
# EKVX NSCLC = test system: EKVX NSCLC
# HCC-2998 colon = test system: HCC-2998 colon
# HCT-116 colon = test system: HCT-116 colon
# HCT-15 colon = test system: HCT-15 colon
# HOP-62 NSCLC = test system: HOP-62 NSCLC
# HOP-92 NSCLC = test system: HOP-92 NSCLC
# HS 578T breast = test system: HS 578T breast
# HT29 colon = test system: HT29 colon
# IGROV1 ovarian = test system: IGROV1 ovarian
# K-562 leukemia = test system: K-562 leukemia
# KM12 colon = test system: KM12 colon
# LOX IMVI melanoma = test system: LOX IMVI melanoma
# M14 melanoma = test system: M14 melanoma
# MCF7 breast = test system: MCF7 breast
# MDA-MB-231 breast = test system: MDA-MB-231 breast
# MDA-MB-435 = test system: MDA-MB-435
# MOLT-4 leukemia = test system: MOLT-4 leukemia
# NCI-H226 lung = test system: NCI-H226 lung
# NCI-H23 lung = test system: NCI-H23 lung
# NCI-H460 lung = test system: NCI-H460 lung
# NCI-H522 lung = test system: NCI-H522 lung
# NCI/ADR-RES ovarian = test system: NCI/ADR-RES ovarian
# OVCAR-3 ovarian = test system: OVCAR-3 ovarian
# OVCAR-4 ovarian = test system: OVCAR-4 ovarian
# OVCAR-5 ovarian = test system: OVCAR-5 ovarian
# OVCAR-8 ovarian = test system: OVCAR-8 ovarian
# PC-3 prostate = test system: PC-3 prostate
# RPMI-8226 leukemia = test system: RPMI-8226 leukemia
# SF-268 CNS = test system: SF-268 CNS
# SF-295 CNS = test system: SF-295 CNS
# SF-539 CNS = test system: SF-539 CNS
# SK-MEL-2 melanoma = test system: SK-MEL-2 melanoma
# SK-MEL-28 melanoma = test system: SK-MEL-28 melanoma
# SK-MEL-5 melanoma = test system: SK-MEL-5 melanoma
# SK-OV-3 ovarian = test system: SK-OV-3 ovarian
# SN12C renal = test system: SN12C renal
# SNB-19 CNS = test system: SNB-19 CNS
# SNB-75 CNS = test system: SNB-75 CNS
# SR leukemia = test system: SR leukemia
# SW-620 colon = test system: SW-620 colon
# T-47D breast = test system: T-47D breast
# TK-10 renal = test system: TK-10 renal
# U251 CNS = test system: U251 CNS
# UACC-257 melanoma = test system: UACC-257 melanoma
# UACC-62 melanoma = test system: UACC-62 melanoma
# UO-31 renal = test system: UO-31 renal
structure (smiles),measurement,setting,value
COc1ccc(/C=C\c2cc(OC)c(OC)c(OC)c2)cc1OCC(=O)Nc1nc2ccc(OC(F)(F)F)cc2s1,GI50,786-0 renal,54.3 µM
same,TGI,786-0 renal,> 100 µM
same,GI50,A498 renal,3.61 µM
same,TGI,A498 renal,> 100 µM
same,GI50,A549 NSCLC,6 µM
same,TGI,A549 NSCLC,> 100 µM
same,GI50,ACHN renal,8.31 µM
same,TGI,ACHN renal,> 100 µM
same,GI50,BT-549 breast,10.5 µM
same,TGI,BT-549 breast,> 100 µM
same,GI50,CAKI-1 renal,4.6 µM
same,TGI,CAKI-1 renal,> 100 µM
same,GI50,CCRF-CEM leukemia,4.12 µM
same,TGI,CCRF-CEM leukemia,> 100 µM
same,GI50,COLO 205 colon,43.3 µM
same,TGI,COLO 205 colon,> 100 µM
same,GI50,DU-145 prostate,4.11 µM
same,TGI,DU-145 prostate,> 100 µM
same,GI50,EKVX NSCLC,7.89 µM
same,TGI,EKVX NSCLC,> 100 µM
same,GI50,HCC-2998 colon,17.1 µM
same,TGI,HCC-2998 colon,> 100 µM
same,GI50,HCT-116 colon,3.92 µM
same,TGI,HCT-116 colon,> 100 µM
same,GI50,HCT-15 colon,3.23 µM
same,TGI,HCT-15 colon,> 100 µM
same,GI50,HOP-62 NSCLC,7.09 µM
same,TGI,HOP-62 NSCLC,> 100 µM
same,GI50,HOP-92 NSCLC,2740 nM
same,TGI,HOP-92 NSCLC,45.1 µM
same,GI50,HS 578T breast,4.33 µM
same,TGI,HS 578T breast,> 100 µM
same,GI50,HT29 colon,> 100 µM
same,TGI,HT29 colon,> 100 µM
same,GI50,IGROV1 ovarian,5.64 µM
same,TGI,IGROV1 ovarian,> 100 µM
same,GI50,K-562 leukemia,3.43 µM
same,TGI,K-562 leukemia,> 100 µM
same,GI50,KM12 colon,4.48 µM
same,TGI,KM12 colon,51.5 µM
same,GI50,LOX IMVI melanoma,4.77 µM
same,TGI,LOX IMVI melanoma,> 100 µM
same,GI50,M14 melanoma,4.36 µM
same,TGI,M14 melanoma,> 100 µM
same,GI50,MCF7 breast,2890 nM
same,TGI,MCF7 breast,> 100 µM
same,GI50,MDA-MB-231 breast,5.16 µM
same,TGI,MDA-MB-231 breast,> 100 µM
same,GI50,MDA-MB-435,1930 nM
same,TGI,MDA-MB-435,5.14 µM
same,GI50,MOLT-4 leukemia,4.21 µM
same,TGI,MOLT-4 leukemia,> 100 µM
same,GI50,NCI-H226 lung,4.3 µM
same,TGI,NCI-H226 lung,62.2 µM
same,GI50,NCI-H23 lung,4.39 µM
same,TGI,NCI-H23 lung,> 100 µM
same,GI50,NCI-H460 lung,4.11 µM
same,TGI,NCI-H460 lung,> 100 µM
same,GI50,NCI-H522 lung,3.16 µM
same,TGI,NCI-H522 lung,21.7 µM
same,GI50,NCI/ADR-RES ovarian,2700 nM
same,TGI,NCI/ADR-RES ovarian,8.62 µM
same,GI50,OVCAR-3 ovarian,3.37 µM
same,TGI,OVCAR-3 ovarian,11.3 µM
same,GI50,OVCAR-4 ovarian,5.34 µM
same,TGI,OVCAR-4 ovarian,> 100 µM
same,GI50,OVCAR-5 ovarian,31.2 µM
same,TGI,OVCAR-5 ovarian,> 100 µM
same,GI50,OVCAR-8 ovarian,5 µM
same,TGI,OVCAR-8 ovarian,> 100 µM
same,GI50,PC-3 prostate,5.12 µM
same,TGI,PC-3 prostate,> 100 µM
same,GI50,RPMI-8226 leukemia,5.83 µM
same,TGI,RPMI-8226 leukemia,> 100 µM
same,GI50,SF-268 CNS,6.01 µM
same,TGI,SF-268 CNS,> 100 µM
same,GI50,SF-295 CNS,3.7 µM
same,TGI,SF-295 CNS,> 100 µM
same,GI50,SF-539 CNS,2280 nM
same,TGI,SF-539 CNS,6.13 µM
same,GI50,SK-MEL-2 melanoma,3.29 µM
same,TGI,SK-MEL-2 melanoma,> 100 µM
same,GI50,SK-MEL-28 melanoma,4.57 µM
same,TGI,SK-MEL-28 melanoma,> 100 µM
same,GI50,SK-MEL-5 melanoma,3.26 µM
same,TGI,SK-MEL-5 melanoma,22.9 µM
same,GI50,SK-OV-3 ovarian,8.42 µM
same,TGI,SK-OV-3 ovarian,> 100 µM
same,GI50,SN12C renal,6.42 µM
same,TGI,SN12C renal,> 100 µM
same,GI50,SNB-19 CNS,7.08 µM
same,TGI,SNB-19 CNS,> 100 µM
same,GI50,SNB-75 CNS,1560 nM
same,TGI,SNB-75 CNS,7.68 µM
same,GI50,SR leukemia,3.55 µM
same,TGI,SR leukemia,> 100 µM
same,GI50,SW-620 colon,5.65 µM
same,TGI,SW-620 colon,> 100 µM
same,GI50,T-47D breast,3.95 µM
same,TGI,T-47D breast,> 100 µM
same,GI50,TK-10 renal,18.6 µM
same,TGI,TK-10 renal,> 100 µM
same,GI50,U251 CNS,3.37 µM
same,TGI,U251 CNS,> 100 µM
same,GI50,UACC-257 melanoma,89.2 µM
same,TGI,UACC-257 melanoma,> 100 µM
same,GI50,UACC-62 melanoma,5.11 µM
same,TGI,UACC-62 melanoma,> 100 µM
same,GI50,UO-31 renal,4.37 µM
same,TGI,UO-31 renal,> 100 µM
